From patent publication US10940139B2, “Compounds that interact with the Ras superfamily for the treatment of cancers, inflammatory diseases, rasopathies, and fibrotic disease” (Shy Therapeutics LLC, priority 2017, dated 2021)
Like-named read-outs stand apart in the source and are kept apart here.

Key:
Assay in all cases: Ras GTP binding domain inhibition assay (labeled GTP)
[1] = biological target: KRas G12D mutant protein (Homo sapiens (Human), UniProt P01116, G12D); conditions: 20 μM compound
[2] = biological target: KRas G12C mutant (Homo sapiens (Human), UniProt P01116, G12C); conditions: 20 μM compound
Method in brief: (§1)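 Ni-plate capture of His-KRas (3-10 μg/ml, o/n, 4° C); Tris pH 7.5/MgCl2/DTT buffer, 1% DMSO. Cpd 20 μM or titration, 3 h RT. Cy3/Cy5-GTP 45 min RT, wash, fluorescence of bound GTP.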

[3] = biological target: KRas G12D/Q61H double mutant (Homo sapiens (Human), UniProt P01116, G12D/Q61H); conditions: 20 μM compound; read-out: % Inhibition at 20 μM KRas G12D Q61H
Method in brief: as §1

[4] = biological target: KRas wild type (Homo sapiens (Human), UniProt P01116); conditions: 20 μM compound
Method in brief: as §1

[5] = read-out: % Inhibition at 20 μM KRas G12D
[6] = read-out: % Inhibition at 20 μM KRas G12C
[7] = read-out: % Inhibition at 20 μM KRas wild type
[8] = KRas G12D, read-out: % Inhibition at 20 μM of K-Ras mutant and wild-type protein, KRas G12D
[9] = KRas G12C, read-out: % Inhibition at 20 μM of K-Ras mutant and wild-type protein, KRas G12C
[10] = KRas wild type, read-out: % Inhibition at 20 μM of K-Ras mutant and wild-type protein, KRas wild type

Sequence of KRas G12C mutant (P01116-2 other isoform, or with tags, fused parts or gaps G12C): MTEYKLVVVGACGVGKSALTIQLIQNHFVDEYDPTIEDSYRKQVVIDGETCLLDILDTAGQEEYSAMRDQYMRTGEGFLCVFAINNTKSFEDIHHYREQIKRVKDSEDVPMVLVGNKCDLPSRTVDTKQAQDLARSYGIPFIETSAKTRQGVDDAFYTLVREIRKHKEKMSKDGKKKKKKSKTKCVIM
Sequence of KRas wild type (P01116-2 other isoform, or with tags, fused parts or gaps): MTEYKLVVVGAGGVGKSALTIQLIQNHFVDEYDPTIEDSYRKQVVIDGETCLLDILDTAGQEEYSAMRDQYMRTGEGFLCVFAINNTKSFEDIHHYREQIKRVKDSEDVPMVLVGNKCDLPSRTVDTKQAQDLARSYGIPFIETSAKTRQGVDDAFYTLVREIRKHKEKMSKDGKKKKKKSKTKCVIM
Sequence of KRas G12D mutant protein (P01116-2 other isoform, or with tags, fused parts or gaps G12D): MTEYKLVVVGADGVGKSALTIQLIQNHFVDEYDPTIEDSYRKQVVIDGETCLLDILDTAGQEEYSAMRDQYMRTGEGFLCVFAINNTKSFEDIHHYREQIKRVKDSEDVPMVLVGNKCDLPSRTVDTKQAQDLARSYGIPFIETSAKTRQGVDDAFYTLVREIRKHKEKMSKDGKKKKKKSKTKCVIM
Sequence of KRas G12D/Q61H double mutant (P01116-2 other isoform, or with tags, fused parts or gaps G12D/Q61H): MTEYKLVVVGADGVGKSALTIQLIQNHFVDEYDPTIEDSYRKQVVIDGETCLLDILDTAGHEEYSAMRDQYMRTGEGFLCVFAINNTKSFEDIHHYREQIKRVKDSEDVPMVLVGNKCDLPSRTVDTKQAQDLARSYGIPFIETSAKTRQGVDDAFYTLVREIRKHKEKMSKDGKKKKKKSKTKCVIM

Row | inhibition at 20 µM [1, 5] | inhibition at 20 µM [2, 6] | inhibition at 20 µM [3] | inhibition at 20 µM [4, 7] | inhibition at 20 µM [1, 8] | inhibition at 20 µM [2, 9] | inhibition at 20 µM [4, 10] | SMILES
1 | 51 to 75% | 51 to 75% | 51 to 75% | 25 to 50% | – | – | – | O=C(OCCc1cccnc1)N1CCCc2c(O)nc(-c3ccccn3)nc21
2 | 25 to 50% | 25 to 50% | 25 to 50% | 1 to 25% | – | – | – | O=C(c1csc2c(O)nc(-c3ccccn3)nc12)N1CCN(c2ccccc2O)CC1
3 | 51 to 75% | 25 to 50% | 25 to 50% | 76 to 100% | – | – | – | O=C(c1csc2c(O)nc(-c3ccccn3)nc12)N1CCOC(c2ccccc2F)C1 (stereo not shown)
4 | 25 to 50% | 25 to 50% | 25 to 50% | 25 to 50% | – | – | – | COc1ccc(CCNC(=O)c2csc3nc(-c4ccccn4)nc(N4CCN(C)CC4)c23)cn1
5 | – | – | – | – | 1 to 25% | 25 to 50% | 0% | CC(CO)Nc1nc(-c2nccn2C)nc2sc(-c3ccccc3)c(-c3ccccc3)c12 (stereo not shown) [drawing 3578]
6 | – | – | – | – | 51 to 75% | 25 to 50% | 25 to 50% | Cn1ccnc1-c1nc(NCCCO)c2c(-c3ccccc3)c(-c3ccccc3)sc2n1 [drawing 3579]
7 | – | – | – | – | 25 to 50% | 25 to 50% | 1 to 25% | COCCNc1nc(-c2nccn2C)nc2sc(-c3ccccc3)c(-c3ccccc3Cl)c12 [drawing 3580]
8 | – | – | – | – | 1 to 25% | 1 to 25% | 1 to 25% | COCCNc1nc(-c2nccn2C)nc2sc(-c3ccccc3Cl)c(-c3ccccc3)c12 [drawing 3581]
9 | – | – | – | – | 51 to 75% | 51 to 75% | 76 to 100% | COCCNc1nc(-c2nccn2C)nc2sc(-c3ccncc3)c(-c3ccccc3)c12 [drawing 3582]
10 | – | – | – | – | 25 to 50% | 25 to 50% | 51 to 75% | COCCNc1nc(-c2cn(C)cn2)nc2sc(-c3ccccc3)c(-c3ccccc3)c12 [drawing 3583]
11 | – | – | – | – | 51 to 75% | 51 to 75% | 51 to 75% | COCCNc1nc(-c2nccn2C)nc2sc(C)c(-c3ccccc3)c12 [drawing 3584]
12 | – | – | – | – | 25 to 50% | 25 to 50% | 51 to 75% | COCCNc1nc(-c2cn(C)cn2)nc2sc(C)c(-c3ccccc3)c12 [drawing 3585]
13 | – | – | – | – | 25 to 50% | 1 to 25% | 25 to 50% | COCCNc1nc(-c2nccn2C)nc2sc(-c3cccc(OC)c3)c(-c3ccccc3)c12 [drawing 3586]
14 | – | – | – | – | 51 to 75% | 25 to 50% | 51 to 75% | CC(C)COc1ccc(-c2c(-c3ccccc3)sc3c(O)nc(-c4nccn4C)nc23)cn1 [drawing 3587]
15 | – | – | – | – | 0% | 0% | 1 to 25% | Cn1ccnc1-c1nc(O)c2sc(-c3ccccc3)c(-c3ccccc3)c2n1 [drawing 3588]
16 | – | – | – | – | 25 to 50% | 25 to 50% | 25 to 50% | COCCNc1nc(-c2nccn2C)nc2sc(-c3ccccc3)c(-c3ccc(OC)cc3)c12 [drawing 3589]
17 | – | – | – | – | 51 to 75% | 25 to 50% | 51 to 75% | COCCNc1nc(-c2nccn2C)nc2sc(C3CCOCC3)c(-c3ccccc3)c12 [drawing 3590]
18 | – | – | – | – | 0% | 1 to 25% | 0% | COCCNc1nc(-c2cccc(N)n2)nc2sc(-c3ccccc3)c(-c3ccccc3)c12 [drawing 3591]
19 | – | – | – | – | 0% | 0% | 1 to 25% | Cn1ccnc1-c1nc(O)c2sc(-c3ccccc3)c(-c3cccc(C(F)(F)F)c3)c2n1 [drawing 3592]
20 | – | – | – | – | 1 to 25% | 1 to 25% | 1 to 25% | COc1ccc(-c2c(-c3ccccc3)sc3c(O)nc(-c4nccn4C)nc23)cn1 [drawing 3593]
21 | – | – | – | – | 25 to 50% | 25 to 50% | 25 to 50% | Cc1sc2c(O)nc(-c3nccn3C)nc2c1-c1ccccc1 [drawing 3594]
22 | – | – | – | – | 51 to 75% | 51 to 75% | 25 to 50% | Cn1ccnc1-c1nc(O)c2sc(-c3ccccc3)c(-c3ccccc3Cl)c2n1 [drawing 3595]
23 | – | – | – | – | 51 to 75% | 25 to 50% | 51 to 75% | COCCNc1nc(-c2nccn2C)nc2sc(-c3ccccc3)c(-c3ccncc3)c12 [drawing 3596]
24 | – | – | – | – | 25 to 50% | 1 to 25% | 1 to 25% | COCCNc1nc(-c2nccn2C)nc2sc(-c3ccc(OC)cc3)c(-c3ccccc3)c12 [drawing 3597]

Row | inhibition at 20 µM [1, 5] | inhibition at 20 µM [2, 6] | inhibition at 20 µM [3] | inhibition at 20 µM [4, 7] | inhibition at 20 µM [1, 8] | inhibition at 20 µM [2, 9] | inhibition at 20 µM [4, 10] | SMILES
25 | – | – | – | – | 25 to 50% | 1 to 25% | 25 to 50% | Cn1ccnc1-c1nc(O)c2scc(-c3cccc(C(F)(F)F)c3)c2n1 [drawing 3598]
26 | – | – | – | – | 1 to 25% | 1 to 25% | 1 to 25% | Cc1sc2c(O)nc(-c3nccn3C)nc2c1-c1cccc(C(F)(F)F)c1 [drawing 3599]
27 | – | – | – | – | 1 to 25% | 1 to 25% | 1 to 25% | Cc1sc2c(O)nc(-c3nccn3C)nc2c1-c1ccc(OCC(C)C)nc1 [drawing 3600]
28 | – | – | – | – | 1 to 25% | 1 to 25% | 1 to 25% | COc1ccc(-c2c(C)sc3c(O)nc(-c4nccn4C)nc23)cn1 [drawing 3601]
29 | – | – | – | – | 51 to 75% | 1 to 25% | 25 to 50% | Cn1ccnc1-c1nc(O)c2scc(-c3cccc(OC(F)(F)F)c3)c2n1 [drawing 3603]
30 | – | – | – | – | 25 to 50% | 25 to 50% | 51 to 75% | Cn1cnc(-c2nc(O)c3scc(-c4cccc(C(F)(F)F)c4)c3n2)c1 [drawing 3604]
31 | – | – | – | – | 1 to 25% | 25 to 50% | 25 to 50% | CC(C)COc1ccc(-c2csc3c(O)nc(-c4cn(C)cn4)nc23)cn1 [drawing 3605]
32 | – | – | – | – | 25 to 50% | 1 to 25% | 25 to 50% | Cn1cnc(-c2nc(O)c3scc(-c4cccc(OC(F)(F)F)c4)c3n2)c1 [drawing 3606]
33 | – | – | – | – | 1 to 25% | 25 to 50% | 25 to 50% | Oc1nc(-c2ccncn2)nc2c(-c3cccc(C(F)(F)F)c3)csc12 [drawing 3607]
34 | – | – | – | – | 25 to 50% | 25 to 50% | 51 to 75% | Oc1nc(-c2ncccn2)nc2c(-c3cccc(C(F)(F)F)c3)csc12 [drawing 3608]
35 | – | – | – | – | 25 to 50% | 25 to 50% | 25 to 50% | CC(C)Oc1ccc(-c2csc3c(O)nc(-c4nccn4C)nc23)cc1F [drawing 3609]
36 | – | – | – | – | 51 to 75% | 1 to 25% | 25 to 50% | Cc1sc2c(O)nc(-c3nccn3C)nc2c1-c1ccc(OC(C)C)c(F)c1 [drawing 3610]
37 | – | – | – | – | 25 to 50% | 1 to 25% | 25 to 50% | CC(C)Oc1ccc(-c2c(-c3ccccc3)sc3c(O)nc(-c4nccn4C)nc23)cc1F [drawing 3611]
38 | – | – | – | – | 76 to 100% | 25 to 50% | 25 to 50% | CC(C)COc1ccc(-c2csc3c(O)nc(-c4nccn4C)nc23)cn1 [drawing 3612]
39 | – | – | – | – | 51 to 75% | 25 to 50% | 25 to 50% | COc1ccc(-c2csc3c(O)nc(-c4nccn4C)nc23)cn1 [drawing 3613]
40 | – | – | – | – | 51 to 75% | 25 to 50% | 25 to 50% | Cn1ccnc1-c1nc(O)c2scc(-c3ccccc3)c2n1 [drawing 3614]
41 | – | – | – | – | 25 to 50% | 25 to 50% | 25 to 50% | Cn1ccnc1-c1nc(O)c2scc(-c3ccccc3Cl)c2n1 [drawing 3615]
42 | – | – | – | – | 25 to 50% | 1 to 25% | 1 to 25% | Cn1ccnc1-c1nc(O)c2scc(-c3ccc(F)cc3F)c2n1 [drawing 3616]
43 | – | – | – | – | 25 to 50% | 25 to 50% | 25 to 50% | Cn1ccnc1-c1nc(O)c2scc(-c3cccc(Cl)c3)c2n1 [drawing 3617]
44 | – | – | – | – | 25 to 50% | 0% | 25 to 50% | COC(C)(C)c1ccc(-c2csc3c(O)nc(-c4nccn4C)nc23)cc1 [drawing 3618]
45 | – | – | – | – | 1 to 25% | 25 to 50% | 1 to 25% | Cn1ccnc1-c1nc(O)c2scc(-c3ccc(C(C)(C)C)cc3)c2n1 [drawing 3619]
46 | – | – | – | – | 1 to 25% | 1 to 25% | 0% | COCCNc1nc(-c2ccccn2)nc2sc(-c3ccccc3)c(-c3ccccn3)c12 [drawing 3620]
47 | – | – | – | – | 1 to 25% | 1 to 25% | 1 to 25% | Cc1sc2c(O)nc(-c3nccn3C)nc2c1-c1ccc(F)cc1F [drawing 3621]
48 | – | – | – | – | 25 to 50% | 25 to 50% | 51 to 75% | COCCNc1nc(-c2nccn2C)nc2sc(-c3ccccc3)c(-c3ccccn3)c12 [drawing 3622]
